According to ChEMBL document CHEMBL4145665, “Structure-Activity Relationship of Novel and Selective Biaryl-Chroman GPR40 AgoPAMs” (ACS Med Chem Lett, 2018):

Tests used:
[1] = tested on: Rattus norvegicus; experiment: Toxicity in Wistar rat assessed as decrease in body weight at 750 mg/kg administered once daily for 4 days relative to control; type: organism-based; set-up: scale not given: the % may be the effect or the level left; settings: in vivo, 96 h
[2] = Lipophilicity, log D of the compound at pH 7 at 100 uM by HPLC method; type: physicochemical; settings: buffer
[3] = Drug metabolism in human hepatocytes assessed as phenol metabolite formation; type: ADME, cell-based, Hepatocyte
[4] = target: Free fatty acid receptor 1 (Rattus norvegicus, UniProt Q8K3T4); experiment: Agonist activity at recombinant rat GPR40 expressed in CHOK1 cells assessed as increase in IP1 accumulation measured after 60 mins by HTRF assay; type: functional, cell-based
Sequence of Free fatty acid receptor 1 (Rattus norvegicus, UniProt Q8K3T4) (Q8K3T4 whole entry): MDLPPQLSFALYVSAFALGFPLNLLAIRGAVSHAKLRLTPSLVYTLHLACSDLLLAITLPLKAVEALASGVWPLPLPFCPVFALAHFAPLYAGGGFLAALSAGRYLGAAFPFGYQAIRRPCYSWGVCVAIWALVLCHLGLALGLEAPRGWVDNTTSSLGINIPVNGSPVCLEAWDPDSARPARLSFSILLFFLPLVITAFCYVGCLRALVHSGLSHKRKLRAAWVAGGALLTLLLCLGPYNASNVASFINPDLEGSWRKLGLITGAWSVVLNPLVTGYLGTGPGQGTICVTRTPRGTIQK

[5] = Fraction unbound in Beagle dog plasma at 1 mg/kg, iv or 2 mg/kg, po administered as single dose; type: ADME, organism-based, Canis lupus familiaris
[6] = Fraction unbound in Wistar-Han rat plasma at 1 mg/kg, iv or 2 mg/kg, po administered as single dose; type: ADME, organism-based
[7] = tested on: Rattus norvegicus; experiment: Toxicity in Wistar rat assessed as increase in liver weight at 200 to 750 mg/kg administered once daily for 4 days; type: organism-based; settings: in vivo, 96 h
[8] = AUC (0 to 24 hrs) in Wistar rat at 750 mg/kg administered once daily for 4 days; type: ADME, organism-based; set-up: dose 750 mg/kg, time < 24 hr; settings: in vivo
[9] = tested on: Rattus norvegicus; experiment: Antidiabetic activity in Goto Kakizaki rats assessed as plasma concentration required for reduction in blood glucose excursion at 0.3 mg/kg, po pretreated for 1 hr followed by dextrose challenge measured 3 hrs post dose by OGTT; type: functional, organism-based
[10] = Cmax in Wistar rat at 750 mg/kg administered once daily for 4 days; type: ADME, organism-based; set-up: dose 750 mg/kg; settings: in vivo
[11] = Intrinsic clearance in rhesus monkey hepatocytes; type: ADME, cell-based, Macaca mulatta, Hepatocyte; settings: read-out: CLH
[12] = tested on: Rattus norvegicus; experiment: Toxicity in Wistar rat assessed as decrease in body weight at 200 mg/kg administered once daily for 4 days relative to control; type: organism-based; set-up: scale not given: the % may be the effect or the level left; settings: in vivo, 96 h
[13] = Oral bioavailability in Wistar-Han rat at 2 mg/kg administered as single dose; type: ADME, organism-based; settings: in vivo
[14] = tested on: Rattus norvegicus; experiment: Toxicity in Wistar rat assessed as mortality at 200 to 750 mg/kg administered once daily for 4 days; type: organism-based; settings: in vivo, 96 h
[15] = tested on: Rattus norvegicus; experiment: Toxicity in Wistar rat assessed as gross findings at 200 to 750 mg/kg administered once daily for 4 days; type: organism-based; settings: in vivo, 96 h
[16] = Effective half life in rhesus monkey at 1 mg/kg, iv or 2 mg/kg, po administered as single dose; type: ADME, organism-based, Macaca mulatta; settings: in vivo, read-out: t1/2eff (converted)
[17] = Volume of distribution at steady state in Wistar-Han rat at 1 mg/kg, iv or 2 mg/kg, po administered as single dose; type: ADME, organism-based; settings: in vivo, read-out: Vdss
[18] = tested on: Rattus norvegicus; experiment: Antidiabetic activity in po dosed Goto Kakizaki rats assessed as plasma concentration required for reduction in blood glucose excursion at MED pretreated for 1 hr followed by dextrose challenge measured 3 hrs post dose by OGTT; type: functional, organism-based
[19] = target: Free fatty acid receptor 1 (Homo sapiens, UniProt O14842); experiment: Agonist activity at recombinant human GPR40 expressed in HEK293 cells assessed as increase in IP1 accumulation measured after 60 mins by HTRF assay; type: functional, cell-based
Sequence of Free fatty acid receptor 1 (Homo sapiens, UniProt O14842) (O14842 whole entry): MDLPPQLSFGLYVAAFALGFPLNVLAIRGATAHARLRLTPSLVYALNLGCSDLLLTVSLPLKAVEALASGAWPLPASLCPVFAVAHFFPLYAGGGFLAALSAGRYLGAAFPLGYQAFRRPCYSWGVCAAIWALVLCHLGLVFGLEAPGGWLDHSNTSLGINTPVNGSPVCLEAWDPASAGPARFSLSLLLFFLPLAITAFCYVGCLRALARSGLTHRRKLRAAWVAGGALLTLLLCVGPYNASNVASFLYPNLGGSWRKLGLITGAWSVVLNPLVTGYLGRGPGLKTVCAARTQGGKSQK

[20] = tested on: Rattus norvegicus; experiment: Antidiabetic activity in Goto Kakizaki rats assessed as inhibition of blood glucose AUC at 0.3 mg/kg, po pretreated for 1 hr followed by dextrose challenge measured after 20 to 60 mins by OGTT method relative to control; type: functional

For `COc1cc(-c2ccc([C@@H]3CCc4ccc([C@H](C5CC5)[C@H](C)C(=O)[O-])cc4O3)c(F)c2)ccn1.[Na+]`, the Activity [1] was 90%, the logD at 100 µM [2] was 2.51 and the Drug metabolism [3] was “Metabolite_Notdetected”. The EC50 [4] was 0.49 nM, the fraction unbound [5] was 0.015 and the fraction unbound [6] was 0.0002. The Activity [7] was “Non-Toxic”, the AUC at 24 h [8] was 7350 µM·h and the Cp [9] was 0.25 µM. The Cmax [10] was 545 µM, the CLint scaled [11] was 6.12 L/h/kg and the Activity [12] was 72%. The bioavailability [13] was 81%, the Activity [14] was “Non-Toxic” and the Activity [15] was “Non-Toxic”. For the same compound, the half-life [16] was 10 h, the Vd [17] was 0.48 L/kg and the Cp [18] was 4.9 µM. It also gave an EC50 [19] of 0.8 nM and an inhibition in vivo at 0.3 mg/kg [20] of 63%.
